Assay results taken from ChEMBL document CHEMBL1806424, “The novel 3,4-dihydropyrimidin-2(1H)-one urea derivatives of N-aryl urea: synthesis, anti-inflammatory, antibacterial and antifungal activity evaluation” (2011).
≈ marks a conversion by molar mass, not a printed value. Calls of active or inactive are those of the source. The rule behind the calls is not given here.

What was measured:
Aspergillus flavus [1] = assay: Antifungal activity against Aspergillus flavus at 200 ug/ml; type: functional, organism-based
Bacillus subtilis [2] = assay: Antibacterial activity against Bacillus subtilis at 200 ug/ml; type: functional, organism-based
Salmonella typhimurium [3] = assay: Antibacterial activity against Salmonella Typhimurium at 200 ug/ml; type: functional, organism-based; settings: Salmonella enterica subsp. enterica serovar Typhimurium
THP-1 [4] = assay: Antiinflammatory activity in human THP1 cells assessed as inhibition of LPS-induced TNFalpha production at 10 uM treated 30 mins before LPS challenge measured after 24 hrs by ELISA; type: functional
Aspergillus niger [5] = assay: Antifungal activity against Aspergillus niger at 200 ug/ml; type: functional, organism-based
Fusarium solani [6] = assay: Antifungal activity against Fusarium solani; type: functional
Escherichia coli [7] = assay: Antibacterial activity against Escherichia coli; type: functional
Staphylococcus aureus [8] = assay: Antibacterial activity against Staphylococcus aureus; type: functional
Candida albicans [9] = assay: Antifungal activity against Candida albicans; type: functional
THP-1 [10] = assay: Antiinflammatory activity in human THP1 cells assessed as inhibition of LPS-induced IL6 production at 10 uM treated 30 mins before LPS challenge measured after 24 hrs by ELISA; type: functional
Aspergillus flavus [11] = assay: Antifungal activity against Aspergillus flavus; type: functional
Aspergillus niger [12] = assay: Antifungal activity against Aspergillus niger; type: functional
Salmonella typhimurium [13] = assay: Antibacterial activity against Salmonella Typhimurium; type: functional, Salmonella enterica subsp. enterica serovar Typhimurium; settings: Salmonella enterica
Bacillus subtilis [14] = assay: Antibacterial activity against Bacillus subtilis; type: functional
Fusarium solani [15] = assay: Antifungal activity against Fusarium solani at 200 ug/ml; type: functional, organism-based
Escherichia coli [16] = assay: Antibacterial activity against Escherichia coli at 200 ug/ml; type: functional, organism-based
Aspergillus flavus [17] = assay: Ratio of miconazole MIC to compound MIC for Aspergillus flavus; type: functional
Staphylococcus aureus [18] = assay: Ratio of ciprofloxacin MIC to compound MIC for Staphylococcus aureus; type: functional
Fusarium solani [19] = assay: Ratio of miconazole MIC to compound MIC for Fusarium solani; type: functional
Candida albicans [20] = assay: Ratio of miconazole MIC to compound MIC for Candida albicans; type: functional
Aspergillus niger [21] = assay: Ratio of miconazole MIC to compound MIC for Aspergillus niger; type: functional
Salmonella typhimurium [22] = assay: Ratio of ciprofloxacin MIC to compound MIC for Salmonella Typhimurium; type: functional, Salmonella enterica subsp. enterica serovar Typhimurium
Escherichia coli [23] = assay: Ratio of ciprofloxacin MIC to compound MIC for Escherichia coli; type: functional
Bacillus subtilis [24] = assay: Ratio of ciprofloxacin MIC to compound MIC for Bacillus subtilis; type: functional
THP-1 [25] = assay: Antiinflammatory activity in human THP1 cells assessed as inhibition of LPS-induced TNFalpha production at 1 uM treated 30 mins before LPS challenge measured after 24 hrs by ELISA; type: functional
THP-1 [26] = assay: Antiinflammatory activity in human THP1 cells assessed as inhibition of LPS-induced IL6 production at 1 uM treated 30 mins before LPS challenge measured after 24 hrs by ELISA; type: functional

Row | Structure (SMILES) | inhibition at 10 µM (THP-1 [4]) [%] | MIC (Fusarium solani [6]) [mg/L] | MIC (Escherichia coli [7]) [mg/L] | MIC (Staphylococcus aureus [8]) [mg/L] | MIC (Candida albicans [9]) [mg/L] | inhibition at 10 µM (THP-1 [10]) [%] | MIC (Aspergillus flavus [11]) [mg/L] | MIC (Aspergillus niger [12]) [mg/L] | MIC (Salmonella typhimurium [13]) [mg/L] | MIC (Bacillus subtilis [14]) [mg/L] | other results
1 | CCOC(=O)C1=C(C)NC(=S)NC1c1ccc(NC(=O)Nc2ccc(F)c(Cl)c2)cc1 (configuration not stated) | 3 | 95 (≈ 205 µM) | 85 (≈ 184 µM) | 60 (≈ 130 µM) | 80 (≈ 173 µM) | 40 |  |  |  |  | Activity (Aspergillus flavus [1]): inactive; Activity (Bacillus subtilis [2]): inactive; Activity (Salmonella typhimurium [3]): inactive; Activity (Aspergillus niger [5]): inactive
2 | Clc1ccc(COC(Cn2ccnc2)c2ccc(Cl)cc2Cl)c(Cl)c1 (configuration not stated) [MICONAZOLE] |  | 15 (≈ 36 µM) |  |  | 25 (≈ 60.1 µM) |  | 20 (≈ 48.1 µM) | 20 (≈ 48.1 µM) |  |  | 
3 | CCOC(=O)C1=C(C)NC(=S)NC1c1ccc(NC(=O)Nc2c(C)cccc2F)cc1 (configuration not stated) | 0 | 40 (≈ 90.4 µM) | 30 (≈ 67.8 µM) | 60 (≈ 136 µM) | 50 (≈ 113 µM) | 6 | 40 (≈ 90.4 µM) | 35 (≈ 79.1 µM) | 30 (≈ 67.8 µM) | 65 (≈ 147 µM) | 
4 | CCOC(=O)C1=C(C)NC(=S)NC1c1ccc(NC(=O)Nc2cccc(C(F)(F)F)c2)cc1 (configuration not stated) | 0 | 15 (≈ 31.3 µM) | 20 (≈ 41.8 µM) | 40 (≈ 83.6 µM) | 25 (≈ 52.2 µM) | 11 | 15 (≈ 31.3 µM) | 20 (≈ 41.8 µM) | 40 (≈ 83.6 µM) | 55 (≈ 115 µM) | 
5 | CCOC(=O)C1=C(C)NC(=S)NC1c1ccc(NC(=O)Nc2cc(F)cc(F)c2)cc1 (configuration not stated) | 62 |  |  | 90 (≈ 202 µM) | 95 (≈ 213 µM) | 86 |  |  |  |  | Activity (Aspergillus flavus [1]): inactive; Activity (Bacillus subtilis [2]): inactive; Activity (Salmonella typhimurium [3]): inactive; Activity (Fusarium solani [15]): inactive; Activity (Aspergillus niger [5]): inactive; Activity (Escherichia coli [16]): inactive
6 | CCOC(=O)C1=C(C)NC(=S)NC1c1ccc(NC(=O)Nc2ccccc2OC(F)(F)F)cc1 (configuration not stated) | 20 | 15 (≈ 30.3 µM) | 25 (≈ 50.6 µM) | 30 (≈ 60.7 µM) | 15 (≈ 30.3 µM) | 60 | 15 (≈ 30.3 µM) | 20 (≈ 40.4 µM) | 20 (≈ 40.4 µM) | 30 (≈ 60.7 µM) | 
7 | CCOC(=O)C1=C(C)NC(=S)NC1c1ccc(NC(=O)Nc2ccccc2F)cc1 (configuration not stated) | 0 | 15 (≈ 35 µM) | 10 (≈ 23.3 µM) | 10 (≈ 23.3 µM) | 10 (≈ 23.3 µM) | 40 | 10 (≈ 23.3 µM) | 10 (≈ 23.3 µM) | 40 (≈ 93.4 µM) | 15 (≈ 35 µM) | Ratio (Aspergillus flavus [17]): 2.5; Ratio (Staphylococcus aureus [18]): 1.5; Ratio (Fusarium solani [19]): 2.5; Ratio (Candida albicans [20]): 2.5; Ratio (Aspergillus niger [21]): 2.5; Ratio (Salmonella typhimurium [22]): 1.5; Ratio (Escherichia coli [23]): 1.5; Ratio (Bacillus subtilis [24]): 1.5
8 | O=C(O)c1cn(C2CC2)c2cc(N3CCNCC3)c(F)cc2c1=O [CIPROFLOXACIN] |  |  | 15 (≈ 45.3 µM) |  |  |  |  |  | 25 (≈ 75.4 µM) | 25 (≈ 75.4 µM) | 
9 | C[C@@H]1C[C@H]2[C@@H]3CCC4=CC(=O)C=C[C@]4(C)[C@@]3(F)[C@@H](O)C[C@]2(C)[C@@]1(O)C(=O)CO [DEXAMETHASONE] |  |  |  |  |  |  |  |  |  |  | inhibition at 1 µM (THP-1 [25]): 71%; inhibition at 1 µM (THP-1 [26]): 84%
10 | CCOC(=O)C1=C(C)NC(=S)NC1c1ccc(NC(=O)Nc2ccccc2Oc2ccccc2)cc1 (configuration not stated) | 0 | 30 (≈ 59.7 µM) | 35 (≈ 69.6 µM) | 40 (≈ 79.6 µM) | 40 (≈ 79.6 µM) | 36 | 30 (≈ 59.7 µM) | 60 (≈ 119 µM) | 40 (≈ 79.6 µM) | 55 (≈ 109 µM) | 
11 | CCOC(=O)C1=C(C)NC(=S)NC1c1ccc(NC(=O)Nc2ccc(F)c(C)c2)cc1 (configuration not stated) | 0 |  |  | 65 (≈ 147 µM) | 80 (≈ 181 µM) | 16 | 95 (≈ 215 µM) | 95 (≈ 215 µM) | 90 (≈ 203 µM) | 90 (≈ 203 µM) | Activity (Fusarium solani [15]): inactive; Activity (Escherichia coli [16]): inactive
12 | CCOC(=O)C1=C(C)NC(=S)NC1c1ccc([N+](=O)[O-])cc1 (configuration not stated) | 0 | 60 (≈ 187 µM) | 30 (≈ 93.4 µM) | 35 (≈ 109 µM) | 30 (≈ 93.4 µM) | 8 | 60 (≈ 187 µM) | 50 (≈ 156 µM) | 50 (≈ 156 µM) | 45 (≈ 140 µM) | 
13 | CCOC(=O)C1=C(C)NC(=S)NC1c1ccc(N)cc1 (configuration not stated) | 0 | 45 (≈ 154 µM) | 40 (≈ 137 µM) | 40 (≈ 137 µM) | 55 (≈ 189 µM) | 3 | 60 (≈ 206 µM) | 40 (≈ 137 µM) | 60 (≈ 206 µM) | 55 (≈ 189 µM) | 
